In patent US20010047099A1, “4-aminopicolinates and their use as herbicides” (priority 2000, published 2001):

Tests used:
Format in all cases: in vivo
[1] = tested on: yellow nutsedge (Cyperus esculentus); assay: Postemergence herbicidal activity; settings: Table 3; weeds in rice; rate 250 ppm
Procedure, shortened: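 Greenhouse plants at first or second true leaf stage sprayed to coverage with compound in acetone/water/isopropanol/DMSO/crop oil/surfactant mixture; 1 ppm ≈ 1 g/Ha. Plants sub-irrigated afterward. Injury scored visually after 2 weeks versus untreated plants, 0 (none) to 100% (complete kill).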

rice (Oryza sativa) = assay: Postemergence herbicidal activity, selectivity to rice; settings: Table 3; crop (rice); rate 250 ppm
Method: (§1) Seeds of the desired test plant species were planted in Grace-Sierra MetroMix® 306 planting mixture, which typically has a pH of 6.0 to 6.8 and an organic matter content of about 30 percent, in plastic pots with a surface area of 64 square centimeters. When required to ensure good germination and healthy plants, a fungicide treatment and/or other chemical or physical treatment was applied. The plants were grown for 7-21 days in a greenhouse with an approximate 15 hr photoperiod which was maintained at about 23-29° C. during the day and 22-28° C. during the night. Nutrients and water were added on a regular basis and supplemental lighting was provided with overhead metal halide 1000-Watt lamps as necessary. The plants were employed for testing when they reached the first or second true leaf stage.
A weighed amount, determined by the highest rate to be tested, of each test compound was placed in a 20 mL glass vial and was dissolved in 4 mL of a 97:3 v/v (volume/volume) mixture of acetone and dimethyl sulfoxide (DMSO) to obtain concentrated stock solutions. […] The concentrated stock solutions obtained were diluted with an aqueous mixture containing acetone, water, isopropyl alcohol, DMSO, Atplus 411F crop oil concentrate, and Triton X-155 surfactant in a 48.5:39:10:1.5:1.0:0.02 v/v ratio to obtain spray solutions of known concentration. The solutions containing the highest concentration to be tested were prepared by diluting 2 mL aliquots of the stock solution with 13 mL of the mixture and lower concentrations were prepared by serial dilution of the stock solution. […]
(§2) The treated plants and control plants were placed in a greenhouse as described above and watered by sub-irrigation to prevent wash-off of the test compounds. After 2 weeks the condition of the test plants as compared with that of the untreated plants was determined visually and scored on a scale of 0 to 100 percent where 0 corresponds to no injury and 100 corresponds to complete kill.

[2] = tested on: wheat (Triticum aestivum); assay: Postemergence herbicidal activity, selectivity to wheat; settings: Table 5; crop (wheat); rate 250 ppm
Method: as §1
A weighed amount, determined by the highest rate to be tested, of each test compound was placed in a 20 mL glass vial and was dissolved in 4 mL of a 97:3 v/v (volume/volume) mixture of acetone and dimethyl sulfoxide (DMSO) to obtain concentrated stock solutions. […] The concentrated stock solutions obtained were diluted with an aqueous mixture containing acetone, water, isopropyl alcohol, DMSO, Atplus 411F crop oil concentrate, and Triton X-155 surfactant in a 48.5:39:10:1.5:1.0:0.02 v/v ratio to obtain spray solutions of known concentration. The solutions containing the highest concentration to be tested were prepared by diluting 2 mL aliquots of the stock solution with 13 mL of the mixture and lower concentrations were prepared by serial dilution of the stock solution. Approximately 1.5 mL aliquots of each solution of known concentration were sprayed evenly onto each of the test plant pots using a DeVilbiss atomizer driven by compressed air pressure of 2 to 4 psi ([…]) to obtain thorough coverage of each plant. Control plants were sprayed in the same manner with the aqueous mixture. In this test an application rate of 1 ppm results in the application of approximately 1 g/Ha.
as §2

[3] = tested on: White Clover (Trifolium repens); assay: Range & Pasture Crop Testing (postemergence track sprayer); settings: Table 10
Procedure, shortened: (§3)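 Postemergence track-sprayer application at 187 L/ha, compounds formulated in 97:3 acetone:DMSO with 0.25% X-77, five rates (X serially diluted to 1/16×). Visual percent control (0–100 scale, burn down) rated 3 weeks after treatment; GR50/GR80 derived by probit analysis.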

[4] = tested on: broadleaf dock (Rumex obtusifolia); assay: as above; settings: Table 9; rate 70 g/Ha; 3 weeks after treatment
Method: (§4) Rates are calculated based upon 5 doses being applied. The high rate (X), followed by serial dilutions of 1/2×, 1/4×, 1/8× and 1/16×. Compound requirements are based upon the 187 L/ha carrier volume, specifications of the delivery system (Mandel track sprayer) and generating 24 mL of technical spray material to allow for the dilutions and overage in the sprayer. [formula]
(§5) All technical materials were formulated in 97:3 (acetone:DMSO) with 0.25% X-77. The total volume of solvent is maintained at less than 7%. An overhead Mandel track sprayer calibrated to deliver 187 L/ha was used for all treatment applications (postemergence). Picloram was included as a comparison treatment.
(§6) Solutions were applied with a mechanized track-sprayer at the following settings:
(§7) Spray height: 17 inches above top of plants
(§8) This provides an application volume of 187 L/ha.
(§9) Percent weed control (burn down) was evaluated 3 weeks after treatment. Visual control on a 0-100 linear scale was used, with 0 representing no control and 100 representing total control. Burn down ratings were taken for annual and perennial weed species.

[5] = tested on: common ragweed (Ambrosia artemisiifolia); assay: as above; settings: Table 9; rate 70 g/Ha; 3 week evaluation
Method: as §4, §5, §6, §7, §8, §9

[6] = tested on: crested wheatgrass (Agropyron cristatum) (grass crop); assay: as above; settings: Table 9, rate 70 g/Ha, 3 weeks after treatment
Method: as §4, §5, §6, §7, §8, §9

[7] = tested on: sicklepod (Cassia obtusifolia); assay: as above; settings: Table 8; salts of Compound 1; dose for 80 percent control
Procedure, shortened: as §3

Row | Structure (SMILES) | post emergent evaluation - % control CYPES [1] [%] | post emergent evaluation - % control ORYZA (rice (Oryza sativa)) [%] | GR20 TRFRE [3] [g/ha] | further results
1 | Nc1cc(Br)nc(C(=O)O)c1Cl [Compound 14, 4-Amino-6-bromo-3-chloropyridine-2-carboxylic acid] | 75 | 10 | – | Post-emergent Evaluation - % control TRZAS [2]: 0%
2 | COC(=O)c1nc(Cl)cc(N)c1Cl [Compound 3, methyl 4-amino-3,6-dichloropyridine-2-carboxylate] | – | – | <17.5 | Post-emergent Evaluation - % control RUMOB [4]: 100%; Post-emergent Evaluation - % control AMBEL [5]: 100%; Post-emergent Evaluation - % control AGRCR [6]: 30%
3 | CCOC(=O)c1nc(Cl)cc(N)c1Cl [Compound 4, ethyl 4-amino-3,6-dichloropyridine-2-carboxylate] | – | – | <17.5 | –
4 | Nc1cc(Cl)nc(C(=O)O)c1Cl [Compound 1, 4-Amino-3,6-dichloropyridine-2-carboxylic acid] | 75 | 10 | – | Post-emergent GR80 CASOB [7]: 11 g/Ha
